# Measurements: ChEMBL document CHEMBL5252554, “Stereodivergent Hydroxylation of Berkeleylactones by Penicillium turbatum” (J Nat Prod, 2023)
# What was measured:
# Staphylococcus aureus = experiment: Antibacterial activity against Staphylococcus aureus ATCC 25923 assessed as bacterial growth inhibition measured after 48 hrs by resazurin dye based assay; assay type: functional
# Bacillus subtilis = experiment: Antibacterial activity against Bacillus subtilis ATCC 6633 assessed as bacterial growth inhibition measured after 48 hrs by resazurin dye based assay; assay type: functional
# Escherichia coli = experiment: Antibacterial activity against Escherichia coli ATCC 25922 assessed as bacterial growth inhibition measured after 48 hrs by resazurin dye based assay; assay type: functional, organism-based
# Saccharomyces cerevisiae = experiment: Antifungal activity against Saccharomyces cerevisiae ATCC 9763 assessed as fungal growth inhibition measured after 48 hrs by bromocresol green staining based method; assay type: functional
# [1] = Antiproliferative activity against mouse NS-1 cells assessed as cell growth inhibition measured after 72 hrs by resazurin dye based assay; assay type: functional; conditions: for IC50: NS1, 72 h
# Giardia intestinalis = experiment: Antiprotozoal activity against Giardia duodenalis 713 assessed as protozoal growth inhibition measured after 96 hrs under anaerobic conditions; assay type: functional
Molecule,MIC (Staphylococcus aureus),MIC (Bacillus subtilis),IC50 [1] [µM],further results
GENTAMICIN,0.8 µM,0.8 µM,–,MIC (Escherichia coli): 1.7 µM
C[C@@H]1[C@H](O)[C@@H](C)/C=C/C=C/C=C/C=C/C=C/C=C/C=C/[C@H](O[C@@H]2O[C@H](C)[C@@H](O)[C@H](N)[C@@H]2O)C[C@@H]2O[C@](O)(C[C@@H](O)C[C@@H](O)[C@H](O)CC[C@@H](O)C[C@@H](O)CC(=O)O[C@H]1C)C[C@H](O)[C@H]2C(=O)O [AMPHOTERICIN B],–,–,–,MIC (Saccharomyces cerevisiae): 0.3 µM
CO[C@@]12[C@H](COC(N)=O)C3=C(C(=O)C(C)=C(N)C3=O)N1C[C@@H]1N[C@@H]12 [MITOMYCIN],–,–,–,MIC ([1]; time 72 hrs): 0.93 µM
C[C@@H]1C[C@@H](O)CCCCCCC[C@H](O)[C@H](O)/C=C/C(=O)O1,50 µg/mL,–,32,LD99 (Giardia intestinalis): 50 µg/mL
C[C@@H]1CCCCCCCCC[C@H](OC(=O)CCC(=O)O)C(=O)/C=C/C(=O)O1,0.4 µg/mL,–,3.1,–
COC(=O)CCC(=O)O[C@H]1CCCCCCCCC[C@@H](C)OC(=O)/C=C/[C@H]1O,25 µg/mL,12.5 µg/mL,5.9,–
